Measurements: PMC5805526, “ZB716, a steroidal selective estrogen receptor degrader (SERD), is orally efficacious in blocking tumor growth in mouse xenograft models” (Oncotarget, 2018)
pEC50, pIC50: −log10 of the molar value. Like-named read-outs stand apart in the source and are kept apart here.

Legend:
ERα = test system: ERα; set-up: method as in PMID 27529700; settings: read-out: binding affinity to ERα, EC50; cited from earlier work
[1] = test system: T47D/Y537S breast cancer cells; test: T47D/Y537S ESR1 mutant cell growth inhibition; format: cell-based; settings: Homo sapiens, 120 h, 5 days treatment
From the text: Wild-type ESR1, the Y537S ESR1 mutant were fused to a FLAG tag at their C-termini and cloned into the lentiviral vector pFLRu-FH [30]. Y537S mutation was first introduced into ESR1 using the QuikChange II XL Site-Directed Mutagenesis Kit (Agilent) with an ESR1-encoding plasmid (Accession number NM_000125.1, GeneCopoeia Inc.) as the template. […] To make lentiviral particles, pFLRu-FH vector DNAs (encoding ESR1(wt) and ESR1(Y537S)) were cotransfected with the packaging plasmids into HEK293T cells using Fugene 6 (Roche). At 48 hours post transfection, culture media containing different viruses were added to T47D cells in the presence of polybrene followed by 3-day puromycin selection for stable expression.
Viable cell numbers were counted with a Z Series Coulter Counter instrument (Beckman-Coulter) following manufacturer's instructions. […] IC50 values were obtained from dose-response curves for all treatments.

ERα LBD = target: T1, ERα LBD (Homo sapiens, UniProt P03372); test: MARCoNI ERα-coregulator interaction peptide microarray; format: biochemical; settings: 10 μM compound, 7 nM GST-tagged ERα LBD, vs apo
T1 construct: using 7 nM GST-tagged ERα LBD (Invitrogen); purchased Invitrogen
T1 sequence (P03372 311-547 limits assumed): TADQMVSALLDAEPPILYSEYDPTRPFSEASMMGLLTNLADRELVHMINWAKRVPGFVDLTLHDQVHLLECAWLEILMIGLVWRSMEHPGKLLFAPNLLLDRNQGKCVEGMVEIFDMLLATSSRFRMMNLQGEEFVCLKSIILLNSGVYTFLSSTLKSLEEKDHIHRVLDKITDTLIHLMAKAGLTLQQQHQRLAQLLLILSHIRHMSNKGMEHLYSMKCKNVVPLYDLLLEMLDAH
Protocol: The modulation of ERα-coregulator interaction by compound was analyzed using MARCoNI (Micro Array Assay for Real-time Coregulator Nuclear receptor Interaction) as described previously using 7 nM GST-tagged ERα LBD (Invitrogen).
Each condition is measured using 3 technical replicates (arrays). After incubation, unbound receptor is removed by washing, and a tiff image of each array is acquired using a CCD camera and receptor binding to each peptide on the array is quantified using dedicated software. For each condition, the three technical replicates are used to calculate mean and S.E.M. ERα binding as well as compound-induced log-fold modulation vs. control for each individual motif. Significance of the modulation is assessed using Student's t-Test.

[2] = set-up: method as in PMID 27529700; settings: after ZB716 dosing; cited from earlier work
[3] = test system: MCF-7 breast cancer cells; test: MCF-7 cell growth inhibition; format: cell-based; settings: Homo sapiens, MCF7, 120 h; 5 days treatment, cell count vs DMSO
Protocol: At the end of treatment, surviving cells were counted and normalized to control cells that were treated with vehicle (DMSO) only. (B) IC50 values were obtained by deriving logarithmic curves from the %cell survival vs. treatment dose plot.

[4] = Drug concentrations in final plasma and tumor tissue of MCF-7 xenograft mice; format: in vivo; settings: female, Nu/Nu, mouse
Protocol: The plasma samples of 100 μL each were processed for analysis by a TSQ UPLC-MS/MS system. Aliquots of 10 μL of 0.5 ng/μl E-Tamoxifen-2C^13, N^15, 200 μL methanol, and 400 μl chloroform were added to the plasma in a 1.5 mL centrifuge tube in sequence. The sample was vortexed and stored at −20°C for 4 hours, followed by sonication in a Branson B3510MT Ultrasonic Cleaners for 30 min and centrifuged at 12000 RPM on a Heraeus Fresco 21 Refrigerated Micro Centrifuge from Thermo Fisher Scientific for 10 min. The supernatant was dried with a nitrogen gas flow and suspended in 100 μL methanol. Aliquots of 10 μL of the above processed samples were injected into a TSQ Vantage mass spectrometer connected with a heated electrospray ionization probe and a Dionex Ultimat 3000 UHPLC with a Hypersil gold column (50×2.1 mm). The probe setting and front mass spectrometer setting were controlled as follows: spray voltage 3200 voltage, auxiliary gas 10psi, vaporizer temperature 365°C, capillary temperature 300°C, sheath gas 30psi, S-lens RF amplitude 51 voltage. The flow gradient was started with initial 30% mobile phase A of water with 0.05% formic acid to 1 min, to 100% mobile phase B of acetonitrile with 0.05% formic acid at 8 min, and return to 30% mobile phase A at 13 min.

- pIC50 [1]: 7.49
- modulation of ERα interaction with coactivator motifs (NCOA family) (ERα LBD): strongly reduced
- pIC50 [3]: 8.82
- concentration at 3 weeks ([4]; plasma, subcutaneous, 200 mg/kg/wk, read-out: Average concentration in final plasma): 27.9 ng/mL
- concentration at 3 weeks ([4]; plasma, treatment ZB716 10 mg/kg daily PO, end of study, read-out: Average concentration in final plasma): 18.4 ng/mL
- concentration at 3 weeks ([4]; plasma, treatment ZB716 30 mg/kg daily PO, end of study, read-out: Average concentration in final plasma): 145 ng/mL
- concentration at 3 weeks ([4]; tumor tissue, subcutaneous, 200 mg/kg/wk, read-out: Average concentration in tumor tissue): 160 ng/mL
- concentration at 3 weeks ([4]; tumor tissue, treatment ZB716 10 mg/kg daily PO, end of study, read-out: Average concentration in tumor tissue): 67.9 ng/mL
- concentration at 3 weeks ([4]; tumor tissue, treatment ZB716 30 mg/kg daily PO, end of study, read-out: Average concentration in tumor tissue): 118 ng/mL
Structure (SMILES): C[C@]12CC[C@@H]3c4ccc(O)cc4C[C@@H](CCCCCCCCC[S+]([O-])CCCC(F)(F)C(F)(F)F)[C@H]3[C@@H]1CC[C@@H]2O (some centres unmarked) [fulvestrant, reference compound]
- share of total active ingredients in mice plasma (active metabolite of ZB716) [2]: 10-20%
